Data on seven compounds can be found in article PMC6480424, “Hydrophobic Amines and Their Guanidine Analogues Modulate Activation and Desensitization of ASIC3” (International Journal of Molecular Sciences, 2019).

Assay type in all cases: cell-based
Assay [1] has as its target T1, ASIC3 (acid-sensing ion channel 3) (Rattus norvegicus, UniProt O35240).
T1 construct: homomeric rat ASIC3 expressed in CHO cells
T1 sequence (O35240 1-533): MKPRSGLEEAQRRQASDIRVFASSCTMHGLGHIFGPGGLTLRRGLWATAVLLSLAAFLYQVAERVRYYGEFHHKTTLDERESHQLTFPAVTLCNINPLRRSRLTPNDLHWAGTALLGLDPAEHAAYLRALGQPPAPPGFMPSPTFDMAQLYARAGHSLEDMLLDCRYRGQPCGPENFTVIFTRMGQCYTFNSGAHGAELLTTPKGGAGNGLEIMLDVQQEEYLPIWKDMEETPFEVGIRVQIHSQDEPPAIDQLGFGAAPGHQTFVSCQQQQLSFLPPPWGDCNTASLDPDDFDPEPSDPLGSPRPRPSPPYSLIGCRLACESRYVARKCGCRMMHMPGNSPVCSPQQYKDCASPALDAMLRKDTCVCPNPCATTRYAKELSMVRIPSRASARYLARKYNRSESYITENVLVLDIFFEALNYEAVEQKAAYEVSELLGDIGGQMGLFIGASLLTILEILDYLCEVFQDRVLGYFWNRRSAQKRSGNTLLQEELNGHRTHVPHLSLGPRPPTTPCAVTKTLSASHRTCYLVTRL
The experiment in a line: whole-cell patch clamp at […], acidic shift of activation. On the technique in general: In patch-clamp work, channel activity is measured electrically.

Assay [2] deals with T1, ASIC3 (acid-sensing ion channel 3). The experiment in a line: whole-cell patch clamp, sustained current potentiation by […] at pH […]. Conditions: read-out: % potentiation at 0.5 mM.
The target is the same in assay [3]. The experiment in a line: whole-cell patch clamp, peak inhibition and sustained potentiation, on/tail currents.
The target is the same in assay [4]. As to the kind of experiment: whole-cell patch clamp, peak current inhibition at pH […].
Assay [5] has the same target. As to the kind of experiment: whole-cell patch clamp, sustained current inhibition by […] at pH […]. Conditions: read-out: % inhibition at 0.5 mM.
The target is the same in assay [6]. The experiment in a line: whole-cell patch clamp, sustained current inhibition at pH […].

Take `CN(C)CCC=C1c2ccccc2CCc2ccccc21` [amitriptyline]: in assay [1], the “whole-cell patch clamp at 500 μM, acidic shift of activation” value was “IEM-2044 and amitriptyline have opposite effects on different channels, inducing an alkaline shift of activation on ASIC1a”.
Regarding `NC1c2ccccc2-c2ccccc21` [IEM-2117], in assay [2], the activation at 500 µM stood at 498 ± 196%.
As to `Nc1c2ccccc2nc2ccccc12` [9AA, 9-aminoacridine], in assay [3], the “whole-cell patch clamp, peak inhibition and sustained potentiation, on/tail curr” value was 9-Aminoacridine and IEM-2044, which inhibit peak and potentiate the sustained component of the response.
Turning to `N=C(N)NCCC1(c2ccccc2)CCCCC1` [IEM-2195], inhibition in assay [4] was half-maximal at 21 ± 15 µM (IC50).
On to `N=C(N)NC12CC3CC(CC(C3)C1)C2` [IEM-2151], for which the inhibition (as a rule, the share of the control response that was lost under treatment) at 500 µM in assay [5] turned out to be 29 ± 4%.
As to `NCCC1(c2ccccc2)CCCCC1` [IEM-2044], the “whole-cell patch clamp, peak inhibition and sustained potentiation, on/tail curr” value in assay [3] is 9-Aminoacridine and IEM-2044, which inhibit peak and potentiate the sustained component of the response.
As for `CC12CC3CC(C)(C1)CC(NC(=N)N)(C3)C2` [IEM-2163], half-maximal inhibition in assay [6] (IC50) was put at 117 ± 5.6 µM.
